Assays:
[1] = tested on: 3T3-L1 adipocytes; assay: GSV-PM fusion in live adipocytes (IRAP-pHluorin, TIRF microscopy); format: cell-based, mouse; conditions: Akti1/2 5 μM for 1 h, insulin 100 nM 30 min
Description: FIG. 3, panels A-C, show knockdown of CDP138 in live 3T3-L1 adipocytes inhibits insulin-stimulated membrane fusion between GLUT4 storage vesicles (GSV) and the PM, but not GLUT4-EGFP trafficking to the TIRF zone. (A): Schematic illustration of the molecular probes and TIRF microcopy-based live cell assays for GLUT4 trafficking and GSV-PM fusion. (B) and (C): The effect of CDP138 knockdown on insulin-stimulated IRAP-pHluorin insertion into the PM (B), and accumulation of GLUT4-EGFP in the TIRF zone (C). Adipocytes (day 4) were transfected by electroporation with plasmid DNA encoding IRAP-pHluorin or GLUT4-EGFP, together with either the scrambled siRNA or smartPool siRNA against mouse 5730419I09Rik. Cells were reseeded on glass-bottomed dishes for 72 hrs, serum starved for 2 hr then stimulated with 100 nM insulin for 30 min. Analyses were performed in a cell warmer adapted for a Nikon TiE with fully motorized combined dual laser (488 and 561 nm). Images were acquired every 3 min immediately after addition of insulin and analyzed as described in the Supplementary Experimental Procedures. Perfect focus system and multiple points capture program (NIS Element) were used to acquire images from multiple positively transfected cells at each time point. […]
Total Internal Reflection Fluorescence (TIRF) Microscopy: Nikon (Melville, N.Y.) TI-TIRF-E, which was based on the objective lens method, was used to perform all the TIRF experiments. […] Positively transfected adipocytes were identified, and the insulin-stimulated IRAP vesicle-PM fusion events or GLUT4-EGFP trafficking to the TIRF zone were recorded every 3 min for a 30 min period using Nikon Eclipse-Ti TIRF microscope. […]
(§1) Image Analysis and Quantification: TIRF and wide field fluorescence microscopy were performed using a Nikon inverted microscope (Melville, N.Y.) with a cooled charge-coupled device camera. […]

[2] = tested on: 3T3-L1 adipocytes; assay: myc-GLUT4-GFP translocation to the cell surface; format: cell-based, mouse; conditions: for effect on insulin-stimulated myc-GLUT4-GFP translocation to cell surface: fixed cells, Akti1/2 50 μM for 1 hr, insulin 100 nM 30 min; for effect of overexpression on insulin-stimulated myc-GLUT4-GFP translocation (TIRF myc / Epi GFP): insulin 100 nM, 30 min
Procedure: FIG. 2, panels A-C show knockdown of CDP138 in 3T3-L1 adipocytes inhibits insulin-stimulated glucose transport (A) and myc-GLUT4-GFP translocation (B), but not endogenous GLUT4 movement to the periphery detected in TIRF zone (C). (A): Differentiated adipocytes at day 5 were transfected with siRNAs against mouse 5730419I09Rik or the scrambled siRNA (Scr) as described earlier (Jiang et al., 2003) for 60 hrs, then serum starved overnight. Cells were then treated with or without insulin (1 nM and 100 nM) for 30 min for the glucose uptake assay, or 15 min for immunoblotting of CDP138, pAkt, Akt and β-actin. Glucose transport data are presented as mean±SD of 4 independent experiments. *P<0.05 vs Scr Insulin (1 nM) group; **P<0.01 vs Scr Insulin (100 nM) group. (B): Day 5 adipocytes were transfected with siRNAs and myc-GLUT4-GFP for 60 hrs and then serum starved overnight. Cells were then treated with insulin (1 nM) for 20 min. Cell surface Myc-GLUT4-GFP was detected with anti-myc monoclonal Ab (9E10) and Alexa Fluor 568-labeled goat anti-mouse IgG in non-permeablized cells. The Myc signal and GFP signal were quantified as previously described (Jiang et al., 2002). Data presented are representative microscopic images and mean±SD of about 160 GFP-positive cells in each group from three independent experiments. **P<0.01 vs Scr Insulin (1 nM) group. […] GLUT4 was detected with a goat anti-GLUT4 Ab and Alexa Fluor 488-conjugated donkey anti-goat Ab in permeabilized cells. Top and middle panels show 100 nm TIRF zone and representative GLUT4 TIRFM images, respectively. Data are mean±SD of 3 independent experiments. **P<0.01 vs Scr Insulin groups.
GLUT4 translocation detection with wide field fluorescence and TIRF microscopy: Both wide field and TIRF microscopy were used to detect myc-GLUT4-GFP translocation to the cell surface as previously described (Jiang et al., 2002) and herein.
To test the effect of RNAi-induced gene specific knockdown of CDP138 or overexpression of CDP138 mutants on GLUT4 translocation, siRNAs or CDP138 constructs were transfected into adipocytes together with myc-GLUT4-GFP by electroporation as previously described (Jiang et al, 2003). […] Cells were washed with cold PBS, fixed with 4% formaldehyde and immunostained. Briefly, for siRNA study, the cell surface Myc-GLUT4-GFP was visualized with mouse anti-Myc Ab (9E10) and AlexaFluoro568-labeled goat anti-mouse secondary Ab (Invitrogen) in PBS containing 1% FBS. After washing, the coverslip were mounted with Prolong antifade reagent (Invitrogen, Eugene Oreg.). Fluorescence microscopy was carried as described below. Then, images were acquired with wide field microscopy as described below. For the study with overexpressed HAtagged CDP138 constructs, the cell surface Myc-GLUT4-GFP was visualized with rabbit anti-Myc Ab (Cell signaling, Inc) and AlexaFluoro568-labeled goat anti-rabbit secondary Ab (InVitrogen) in PBS containing 1% FBS. Cells were further permeabilized with PSB containing 0.5% Tween-20, and HA-tagged protein was detected with a mouse anti-HA epitope primary Ab followed by AlexaFluoro-350-labelled goat anti-mouse IgG. Insulin-induced myc-GLUT4 accumulation (AlexaFluoro-568 signal) within the evanescence excitation field (100 nm from dorsal membrane) in transfected adipocytes was measured with a Nikon Eclipse-Ti microscope equipped with a CoolSNAP HQ2 camera and laser scanning TIRF capacity. Total GLUT4-GFP signals and […] Alexa Fluoro-350 signals were acquired with wide field imaging to identify double-transfected cells. The ratio of myc-GLUT4 signal in the TIRF zone to the total Epi-GFP signal in wide field was used as a measure of GLUT4 translocation to the cell surface.
as §1

Molecule | effect on insulin-induced GSV-PM membrane fusion [1] | effect on insulin-induced GSV-PM membrane fusion ([1]; listed as Akti1/2) | effect on insulin-stimulated myc-GLUT4-GFP translocation to cell surface [2] | effect on insulin-stimulated myc-GLUT4-GFP translocation to cell surface ([2]; listed as Akti1/2) | effect of overexpression on insulin-stimulated myc-GLUT4-GFP translocation (TIRF myc / Epi GFP) [2] | effect of overexpression on insulin-stimulated myc-GLUT4-GFP translocation (TIRF myc / Epi GFP) ([2]; listed as S197A)
O=c1[nH]c2ccccc2n1C1CCN(Cc2ccc(-c3nc4cc5nc[nH]c5cc4nc3-c3ccccc3)cc2)CC1 [Akti, reference compound] | significantly inhibited | blocks | significantly inhibited | blocks |  | 
HA-CDP138-5DA: HA-tagged CDP138 with D19A, D26A, D76A, D78A, D84A (protein, UniProt Q86YS7 1-1000, looked up, variant D19A D26A D76A D78A D84A, HA tag, HA-tagged CDP138 with D19A, D26A, D76A, D78A, D84A) C2 domain-containing protein 5: MPGKLKVKIVAGRHLPVMARASDLTAAFVEVKFGNTTFKTDVYLKSLNPQWNSEWFKFEVDDEDLQDEPLQITVLAHATYSANAAIGKVYIDIDPLLYSEAATVISGWFPIYDTIHGIRGEINVVVKVDLFNDLNRFRQSSCGVKFFCTTSIPKCYRAVIIHGFVEELVVNEDPEYQWIDRIRTPRASNEARQRLISLMSGELQRKIGLKVLEMRGNAVVGYLQCFDLEGESGLVVRAIGTACTLDKLSSPAAFLPACNSPSKEMKEIPFNEDPNPNTHSSGPSTPLKNQTYSFSPSKSYSRQSSSSDTDLSLTPKTGMGSGSAGKEGGPFKALLRQQTQSALEQREFPFFTLTAFPPGFLVHVGGVVSARSVKLLDRIHNPDEPETRDAWWAEIRQEIKSHAKALGCHAVVGYSESTSICEEVCILSASGTAAVLNPRFLQDGTVEGCLEQRLEENLPTRCGFCHIPYDELNMPFPAHLTYCYNCRKQKVPDVLFTTIDLPTDATVIGKGCLIQARLCRLKKKAQAEANATAISNLLPFMEYEVHTQLMNKLKLKGMNALFGLRIQITVGENMLMGLASATGVYLAALPTPGGIQIAGKTPNDGSYEQHISHMQKKINDTIAKNKELYEINPPEISEEIIGSPIPEPRQRSRLLRSQSESSDEVTELDLSHGKKDAFVLEIDDTDAMEDVHSLLTDVPPPSGFYSCNTEIMPGINNWTSEIQMFTSVRVIRLSSLNLTNQALNKNFNDLCENLLKSLYFKLRSMIPCCLCHVNFTVSLPEDELIQVTVTAVAITFDKNQALQTTKTPVEKSLQRASTDNEELLQFPLELCSDSLPSHPFPPAKAMTVEKASPVGDGNFRNRSAPPCANSTVGVVKMTPLSFIPGAKITKYLGIINMFFIRETTSLREEGGVSGFLHAFIAEVFAMVRAHVAALGGNAVVSYIMKQCVFMENPNKNQAQCLINVSGDAVVFVRESDLEVVSSQQPTTNCQSSCTEGEVTT |  |  |  |  | inhibited | 
HA-CDP138-S197A: HA-tagged CDP138 mutant lacking the Akt2 phosphorylation site Ser197 (protein, UniProt Q86YS7 1-1000, looked up, variant S197A, HA tag, HA-tagged CDP138 mutant lacking the Akt2 phosphorylation site Ser197) C2 domain-containing protein 5: MPGKLKVKIVAGRHLPVMDRASDLTDAFVEVKFGNTTFKTDVYLKSLNPQWNSEWFKFEVDDEDLQDEPLQITVLDHDTYSANDAIGKVYIDIDPLLYSEAATVISGWFPIYDTIHGIRGEINVVVKVDLFNDLNRFRQSSCGVKFFCTTSIPKCYRAVIIHGFVEELVVNEDPEYQWIDRIRTPRASNEARQRLIALMSGELQRKIGLKVLEMRGNAVVGYLQCFDLEGESGLVVRAIGTACTLDKLSSPAAFLPACNSPSKEMKEIPFNEDPNPNTHSSGPSTPLKNQTYSFSPSKSYSRQSSSSDTDLSLTPKTGMGSGSAGKEGGPFKALLRQQTQSALEQREFPFFTLTAFPPGFLVHVGGVVSARSVKLLDRIHNPDEPETRDAWWAEIRQEIKSHAKALGCHAVVGYSESTSICEEVCILSASGTAAVLNPRFLQDGTVEGCLEQRLEENLPTRCGFCHIPYDELNMPFPAHLTYCYNCRKQKVPDVLFTTIDLPTDATVIGKGCLIQARLCRLKKKAQAEANATAISNLLPFMEYEVHTQLMNKLKLKGMNALFGLRIQITVGENMLMGLASATGVYLAALPTPGGIQIAGKTPNDGSYEQHISHMQKKINDTIAKNKELYEINPPEISEEIIGSPIPEPRQRSRLLRSQSESSDEVTELDLSHGKKDAFVLEIDDTDAMEDVHSLLTDVPPPSGFYSCNTEIMPGINNWTSEIQMFTSVRVIRLSSLNLTNQALNKNFNDLCENLLKSLYFKLRSMIPCCLCHVNFTVSLPEDELIQVTVTAVAITFDKNQALQTTKTPVEKSLQRASTDNEELLQFPLELCSDSLPSHPFPPAKAMTVEKASPVGDGNFRNRSAPPCANSTVGVVKMTPLSFIPGAKITKYLGIINMFFIRETTSLREEGGVSGFLHAFIAEVFAMVRAHVAALGGNAVVSYIMKQCVFMENPNKNQAQCLINVSGDAVVFVRESDLEVVSSQQPTTNCQSSCTEGEVTT |  |  |  |  | inhibited | blocked

Source: patent US20120204273A1, “COMPOSITIONS RELATING TO A PHOSPHOPROTEIN AND METHODS OF USE” (SANFORD-BURNHAM MEDICAL RESEARCH INSTITUTE, priority 2010, published 2012)
